Holding throughout (assay type): functional
Test [1] deals with Staphylococcus aureus. Briefly: Antibacterial activity against erythromycin-susceptible Staphylococcus aureus ATCC 25923 by broth microdilution method. On the technique in general: Broth dilution looks for growth in wells or tubes with falling amounts of substance.
Test [2] deals with Streptococcus pneumoniae. Briefly: Antibacterial activity against erythromycin-resistant Streptococcus pneumoniae A22072 expressing mef gene by broth microdilution method.
The subject of test [3] is Streptococcus pneumoniae. In words: Antibacterial activity against erythromycin-resistant Streptococcus pneumoniae B1 expressing erm gene by broth microdilution method.
Test [4] relates to Streptococcus pneumoniae. Briefly: Antibacterial activity against erythromycin-resistant Streptococcus pneumoniae AB11 expressing erm and mef gene by broth microdilution method.
For test [5], the system named is Streptococcus pneumoniae. In words: Antibacterial activity against erythromycin-susceptible Streptococcus pneumoniae ATCC 49619 by broth microdilution method.
The subject of test [6] is Streptococcus pneumoniae. In words: Ratio of clarithromycin MIC to compound MIC for erythromycin-resistant Streptococcus pneumoniae A22072 expressing mef gene.
For test [7], the system named is Streptococcus pneumoniae. In words: Ratio of erythromycin MIC to compound MIC for erythromycin-resistant Streptococcus pneumoniae A22072 expressing mef gene.

≈ marks a conversion by molar mass, not a printed value.

What is called MIC is the least concentration at which growth counts as inhibited. A lower MIC goes with inhibition by little substance. Take `CC[C@H]1OC(=O)[C@H](C)[C@@H](O[C@H]2C[C@@](C)(OC)[C@@H](OC(=O)NNC(=O)c3ccc4[nH]c(-c5cccc([N+](=O)[O-])c5)nc4c3)[C@H](C)O2)[C@H](C)[C@@H](O[C@@H]2O[C@H](C)C[C@H](N(C)C)[C@H]2O)[C@](C)(OC)C[C@@H](C)C(=O)[C@H](C)[C@@H](O)[C@]1(C)O`: the MIC worked out at 0.5 µg/mL (≈ 0.467 µM) in test [1]; 1 µg/mL (≈ 0.934 µM) in test [2]; 64 µg/mL (≈ 59.7 µM) in test [3]; 128 µg/mL (≈ 119 µM) in test [4]; 0.25 µg/mL (≈ 0.233 µM) in test [5].

For the molecule `CC[C@H]1OC(=O)[C@H](C)[C@@H](O[C@H]2C[C@@](C)(OC)[C@@H](OC(=O)NNC(=O)c3ccc4[nH]c(-c5ccc(C(F)(F)F)cc5)nc4c3)[C@H](C)O2)[C@H](C)[C@@H](O[C@@H]2O[C@H](C)C[C@H](N(C)C)[C@H]2O)[C@](C)(OC)C[C@@H](C)C(=O)[C@H](C)[C@@H](O)[C@]1(C)O`, the MIC amounted to 0.5 µg/mL (≈ 0.457 µM) in test [1]; 0.06 µg/mL (≈ 0.0548 µM) in test [2]; 8 µg/mL (≈ 7.31 µM) in test [3]; 8 µg/mL (≈ 7.31 µM) in test [4]; 0.25 µg/mL (≈ 0.228 µM) in test [5].

Regarding `CC[C@H]1OC(=O)[C@H](C)[C@@H](O[C@H]2C[C@@](C)(OC)[C@@H](OC(=O)NNC(=O)c3ccc4[nH]c(-c5ccc(Br)cc5)nc4c3)[C@H](C)O2)[C@H](C)[C@@H](O[C@@H]2O[C@H](C)C[C@H](N(C)C)[C@H]2O)[C@](C)(OC)C[C@@H](C)C(=O)[C@H](C)[C@@H](O)[C@]1(C)O`, the MIC in test [1] came out at 1 µg/mL (≈ 0.905 µM); in test [2], 0.06 µg/mL (≈ 0.0543 µM); in test [3], 16 µg/mL (≈ 14.5 µM); in test [4], 16 µg/mL (≈ 14.5 µM); in test [5] it was 0.25 µg/mL (≈ 0.226 µM).

With `CC[C@H]1OC(=O)[C@H](C)[C@@H](O[C@H]2C[C@@](C)(OC)[C@@H](OC(=O)NNC(=O)c3ccc4[nH]cnc4c3)[C@H](C)O2)[C@H](C)[C@@H](O[C@@H]2O[C@H](C)C[C@H](N(C)C)[C@H]2O)[C@](C)(OC)C[C@@H](C)C(=O)[C@H](C)[C@@H](O)[C@]1(C)O`, the MIC in test [1] was 0.5 µg/mL (≈ 0.526 µM); in test [2] it was 1 µg/mL (≈ 1.05 µM); in test [3], 32 µg/mL (≈ 33.7 µM); in test [4], 32 µg/mL (≈ 33.7 µM); in test [5] it was 0.12 µg/mL (≈ 0.126 µM).

Turning to `CC[C@H]1OC(=O)[C@H](C)[C@@H](O[C@H]2C[C@@](C)(OC)[C@@H](OC(=O)NNC(=O)c3ccc4[nH]c(C)nc4c3)[C@H](C)O2)[C@H](C)[C@@H](O[C@@H]2O[C@H](C)C[C@H](N(C)C)[C@H]2O)[C@](C)(OC)C[C@@H](C)C(=O)[C@H](C)[C@@H](O)[C@]1(C)O`, the minimum inhibitory concentration (MIC) in test [1] amounted to 0.5 µg/mL (≈ 0.519 µM); in test [2] it was 1 µg/mL (≈ 1.04 µM); in test [3] it was 8 µg/mL (≈ 8.3 µM); in test [4], 64 µg/mL (≈ 66.4 µM); in test [5], 0.12 µg/mL (≈ 0.124 µM).

With `CC[C@H]1OC(=O)[C@H](C)[C@@H](O[C@H]2C[C@@](C)(OC)[C@@H](OC(=O)NNC(=O)c3ccc4[nH]c(C(F)(F)F)nc4c3)[C@H](C)O2)[C@H](C)[C@@H](O[C@@H]2O[C@H](C)C[C@H](N(C)C)[C@H]2O)[C@](C)(OC)C[C@@H](C)C(=O)[C@H](C)[C@@H](O)[C@]1(C)O`, the MIC was 0.25 µg/mL (≈ 0.246 µM) in test [1]; 0.12 µg/mL (≈ 0.118 µM) in test [2]; 32 µg/mL (≈ 31.4 µM) in test [3]; 64 µg/mL (≈ 62.9 µM) in test [4]; 0.12 µg/mL (≈ 0.118 µM) in test [5].

Consider `CCc1nc2cc(C(=O)NNC(=O)O[C@H]3[C@H](C)O[C@@H](O[C@H]4[C@H](C)[C@@H](O[C@@H]5O[C@H](C)C[C@H](N(C)C)[C@H]5O)[C@](C)(OC)C[C@@H](C)C(=O)[C@H](C)[C@@H](O)[C@](C)(O)[C@@H](CC)OC(=O)[C@@H]4C)C[C@@]3(C)OC)ccc2[nH]1`, for which the MIC in test [1] turned out to be 0.5 µg/mL (≈ 0.511 µM); in test [2] it was 0.12 µg/mL (≈ 0.123 µM); in test [3], 32 µg/mL (≈ 32.7 µM); in test [4] it was 64 µg/mL (≈ 65.4 µM); in test [5], 0.25 µg/mL (≈ 0.256 µM).

For the molecule `CCCc1nc2cc(C(=O)NNC(=O)O[C@H]3[C@H](C)O[C@@H](O[C@H]4[C@H](C)[C@@H](O[C@@H]5O[C@H](C)C[C@H](N(C)C)[C@H]5O)[C@](C)(OC)C[C@@H](C)C(=O)[C@H](C)[C@@H](O)[C@](C)(O)[C@@H](CC)OC(=O)[C@@H]4C)C[C@@]3(C)OC)ccc2[nH]1`, the MIC in test [1] stood at 0.25 µg/mL (≈ 0.252 µM); in test [2] it was 0.12 µg/mL (≈ 0.121 µM); in test [3], 64 µg/mL (≈ 64.5 µM); in test [4] it was 64 µg/mL (≈ 64.5 µM); in test [5] it was 0.12 µg/mL (≈ 0.121 µM).

`CC[C@H]1OC(=O)[C@H](C)[C@@H](O[C@H]2C[C@@](C)(OC)[C@@H](OC(=O)NNC(=O)c3ccc4[nH]c(C(C)C)nc4c3)[C@H](C)O2)[C@H](C)[C@@H](O[C@@H]2O[C@H](C)C[C@H](N(C)C)[C@H]2O)[C@](C)(OC)C[C@@H](C)C(=O)[C@H](C)[C@@H](O)[C@]1(C)O`: the MIC in test [1] came to 0.12 µg/mL (≈ 0.121 µM); in test [2] it was 0.12 µg/mL (≈ 0.121 µM); in test [3], 16 µg/mL (≈ 16.1 µM); in test [4] it was 64 µg/mL (≈ 64.5 µM); in test [5], 0.12 µg/mL (≈ 0.121 µM).

`CC[C@H]1OC(=O)[C@H](C)[C@@H](O[C@H]2C[C@@](C)(OC)[C@@H](OC(=O)NNC(=O)c3ccc4[nH]c(-c5ccccc5)nc4c3)[C@H](C)O2)[C@H](C)[C@@H](O[C@@H]2O[C@H](C)C[C@H](N(C)C)[C@H]2O)[C@](C)(OC)C[C@@H](C)C(=O)[C@H](C)[C@@H](O)[C@]1(C)O`: the MIC in test [1] worked out at 0.25 µg/mL (≈ 0.244 µM); in test [2], 0.03 µg/mL (≈ 0.0292 µM); in test [3] it was 8 µg/mL (≈ 7.8 µM); in test [4], 16 µg/mL (≈ 15.6 µM); in test [5], 0.03 µg/mL (≈ 0.0292 µM). For the same molecule, the Ratio is on record as 133 in test [6] and 267 in test [7].

Turning to `CC[C@H]1OC(=O)[C@H](C)[C@@H](O[C@H]2C[C@@](C)(OC)[C@@H](OC(=O)NNC(=O)c3ccc4[nH]c(-c5cccc(Cl)c5O)nc4c3)[C@H](C)O2)[C@H](C)[C@@H](O[C@@H]2O[C@H](C)C[C@H](N(C)C)[C@H]2O)[C@](C)(OC)C[C@@H](C)C(=O)[C@H](C)[C@@H](O)[C@]1(C)O`, the MIC worked out at 0.5 µg/mL (≈ 0.464 µM) in test [1]; 0.25 µg/mL (≈ 0.232 µM) in test [2]; 16 µg/mL (≈ 14.9 µM) in test [3]; 32 µg/mL (≈ 29.7 µM) in test [4]; 0.03 µg/mL (≈ 0.0279 µM) in test [5].

Consider `CC[C@H]1OC(=O)[C@H](C)[C@@H](O[C@H]2C[C@@](C)(OC)[C@@H](O)[C@H](C)O2)[C@H](C)[C@@H](O[C@@H]2O[C@H](C)C[C@H](N(C)C)[C@H]2O)[C@](C)(O)C[C@@H](C)CN(C)[C@H](C)[C@@H](O)[C@]1(C)O` [AZITHROMYCIN], for which the MIC in test [1] was 0.12 µg/mL (≈ 0.16 µM); in test [2] it was 4 µg/mL (≈ 5.34 µM); in test [3] it was 128 µg/mL (≈ 171 µM); in test [4] it was 256 µg/mL (≈ 342 µM); in test [5], 0.12 µg/mL (≈ 0.16 µM).

Regarding `CC[C@H]1OC(=O)[C@H](C)[C@@H](O[C@H]2C[C@@](C)(OC)[C@@H](O)[C@H](C)O2)[C@H](C)[C@@H](O[C@@H]2O[C@H](C)C[C@H](N(C)C)[C@H]2O)[C@](C)(OC)C[C@@H](C)C(=O)[C@H](C)[C@@H](O)[C@]1(C)O` [CLARITHROMYCIN], the MIC in test [1] amounted to 0.12 µg/mL (≈ 0.16 µM); in test [2], 4 µg/mL (≈ 5.35 µM); in test [3], 128 µg/mL (≈ 171 µM); in test [4], 128 µg/mL (≈ 171 µM); in test [5] it was 0.12 µg/mL (≈ 0.16 µM).

With `CC[C@H]1OC(=O)[C@H](C)[C@@H](O[C@H]2C[C@@](C)(OC)[C@@H](O)[C@H](C)O2)[C@H](C)[C@@H](O[C@@H]2O[C@H](C)C[C@H](N(C)C)[C@H]2O)[C@](C)(O)C[C@@H](C)C(=O)[C@H](C)[C@@H](O)[C@]1(C)O` [ERYTHROMYCIN], the MIC in test [1] stood at 0.12 µg/mL (≈ 0.164 µM); in test [2], 8 µg/mL (≈ 10.9 µM); in test [3] it was 128 µg/mL (≈ 174 µM); in test [4], 256 µg/mL (≈ 349 µM); in test [5] it was 0.12 µg/mL (≈ 0.164 µM).

The record behind these values is ChEMBL document CHEMBL1795320, “Synthesis and antibacterial activity of novel 4″-O-benzimidazolyl clarithromycin derivatives” (2011).
